# Test results as given in patent US10308620B2, “Muscarinic M1 receptor positive allosteric modulators” (SUVEN LIFE SCIENCES LIMITED, priority 2015, dated 2019).
# Target: recombinant human Muscarinic M1 receptor (Homo sapiens (Human), UniProt P11229)
# Assay: Allosteric potency EC50, CHO cells with pCRE-Luc reporter, in presence of EC20 of acetylcholine
# Type: cell-based
# Conditions: 4 hours
# Method: Determination of Allosteric Potency EC50 Values for Muscarinic M1 Receptor:
# A stable CHO cell line expressing recombinant human Muscarinic M1 receptor and pCRE-Luc reporter system was used for cell-based assay. The assay offers a non-radioactive based approach to determine binding of a compound to GPCRs. In this specific assay, the level of intracellular cyclic AMP which is modulated by activation or inhibition of the receptor is measured. The recombinant cells harbor luciferase reporter gene under the control of cAMP response element.
# The above cells were grown in 96 well clear bottom white plates in Hams F12 medium containing 10% fetal bovine serum (FBS). Prior to the addition of compounds or standard agonist, cells were serum starved overnight. Increasing concentrations of test compounds were added along with EC20 of acetylcholine in OptiMEM medium to the cells. The incubation was continued at 37° C. in CO2 incubator for 4 hours. Medium was removed and cells were washed with phosphate buffered saline. The cells were lysed and luciferase activity was measured in a Luminometer. Luminescence units were plotted against the compound concentrations using Graphpad software. EC50 values of the compounds were defined as the concentration required in stimulating the luciferase activity by 50% in presence of EC20 of acetylcholine.
# Sequence of recombinant human Muscarinic M1 receptor (P11229 whole entry): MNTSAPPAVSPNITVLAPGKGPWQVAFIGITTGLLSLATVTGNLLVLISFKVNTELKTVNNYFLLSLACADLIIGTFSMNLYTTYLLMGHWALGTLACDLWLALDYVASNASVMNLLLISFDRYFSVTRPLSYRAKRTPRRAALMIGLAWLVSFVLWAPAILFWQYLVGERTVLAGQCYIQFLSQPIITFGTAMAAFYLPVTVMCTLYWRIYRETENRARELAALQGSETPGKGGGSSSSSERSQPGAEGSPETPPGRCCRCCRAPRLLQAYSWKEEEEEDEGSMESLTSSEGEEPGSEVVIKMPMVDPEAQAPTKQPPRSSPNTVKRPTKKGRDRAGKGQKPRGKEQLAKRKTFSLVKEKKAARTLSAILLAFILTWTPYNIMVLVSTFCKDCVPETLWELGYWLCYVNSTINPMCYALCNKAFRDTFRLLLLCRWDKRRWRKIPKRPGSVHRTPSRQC
row,SMILES,EC50
1,"O=C(N[C@H]1CCCC[C@@H]1O)C1=CN(Cc2ccccc2F)c2cccc(F)c2O1 [Example 2, N-(cis-1S,2S-2-Hydroxycyclohexyl)-4-(2-fluorobenzyl)-8-fluoro-4H-benzo[1,4]oxazine-2-carboxamide]",0.134 µM
2,"CC(C)(O)CNC(=O)C1=CN(Cc2cccc(F)c2)c2ccccc2O1 [Example 8, N-(2-Hydroxy-2-methylpropyl)-4-(3-fluorobenzyl)-4H-benzo[1,4]oxazine-2-carboxamide]",2.89 µM
3,"COc1cccc(CN2C=C(C(=O)NCC(C)(C)O)Oc3ccccc32)c1 [Example 10, N-(2-Hydroxy-2-methylpropyl)-4-(3-methoxybenzyl)-4H-benzo[1,4]oxazine-2-carboxamide]",1.55 µM
4,"O=C(N[C@H]1CCCC[C@@H]1O)C1=CN(Cc2ccc(F)cc2)c2ccccc2O1 [Example 13, N-(cis-1S,2S-2-Hydroxycyclohexyl)-4-(4-fluorobenzyl)-4H-benzo[1,4]oxazine-2-carboxamide]",0.907 µM
5,"CC(C)(O)CNC(=O)C1=CN(Cc2ccc(F)cc2)c2ccccc2O1 [Example 14, N-(2-Hydroxy-2-methylpropyl)-4-(4-fluorobenzyl)-4H-benzo[1,4]oxazine-2-carboxamide]",1.36 µM
6,"COc1ccc(CN2C=C(C(=O)NCC(C)(C)O)Oc3ccccc32)cn1 [Example 16, N-(2-Hydroxy-2-methylpropyl)-4-(2-methoxypyridin-5-ylmethyl)-4H-benzo[1,4]oxazine-2-carboxamide]",1.35 µM
7,"O=C(N[C@H]1CCCC[C@@H]1O)C1=CN(Cc2ccc(Cl)c(Cl)c2)c2ccccc2O1 [Example 26, N-(cis-1S, 2S-2-Hydroxycyclohexyl)-4-(3,4-dichlorobenzyl)-4H-benzo[1,4]oxazine-2-carboxamide]",0.159 µM
8,"O=C(N[C@H]1CCCC[C@@H]1O)C1=CN(Cc2ccc(Cl)cc2Cl)c2ccccc2O1 [Example 28, N-(cis-1S, 2S-2-Hydroxycyclohexyl)-4-(2,4-dichlorobenzyl)-4H-benzo[1,4]oxazine-2-carboxamide]",0.25 µM
9,"O=C(N[C@H]1CCCC[C@@H]1O)C1=CN(Cc2cccc(F)c2F)c2cccc(F)c2O1 [Example 29, N-(cis-1S,2S-2-Hydroxycyclohexyl)-4-(2,3-difluorobenzyl)-8-fluoro-4H-benzo[1,4]oxazine-2-carboxamide]",0.14 µM
10,"O=C(N[C@H]1CCCC[C@@H]1O)C1=CN(Cc2ccncc2F)c2ccccc2O1 [Example 34, N-(cis-1S,2S-2-Hydroxycyclohexyl)-4-(3-fluoropyridin-4-ylmethyl)-4H-benzo[1,4]oxazine-2-carboxamide]",1.52 µM
11,"O=C(N[C@H]1CCCC[C@@H]1O)C1=CN(Cc2ccccc2C(F)(F)F)c2ccccc2O1 [Example 37, N-(cis-1S, 2S-2-Hydroxycyclohexyl)-4-(2-trifluoromethylbenzyl)-4H-benzo[1,4]oxazine-2-carboxamide]",0.534 µM
12,"O=C(N[C@H]1CCCC[C@@H]1O)C1=CN(Cc2ccccc2Cl)c2ccccc2O1 [Example 41, N-(cis-1S, 2S-2-Hydroxycyclohexyl)-4-(2-chlorobenzyl)-4H-benzo[1,4]oxazine-2-carboxamide]",0.168 µM

# Second part, the molecule after the results:
row,EC50,SMILES
1,1.15 µM,"O=C(N[C@H]1CCCC[C@@H]1O)C1=CN(Cc2ccccc2F)c2ncccc2O1 [Example 3, N-(cis-1S,2S-2-Hydroxycyclohexyl)-4-{2-fluorobenzyl}-4H-pyrido[3,2-b][1,4]oxazine-2-carboxamide]"
2,1.51 µM,"COc1ccc(CN2C=C(C(=O)NCC(C)(C)O)Oc3ccccc32)cc1 [Example 6, N-(2-Hydroxy-2-methylpropyl)-4-(4-methoxybenzyl)-4H-benzo[1,4]oxazine-2-carboxamide]"
3,1.51 µM,"COc1cc(CN2C=C(C(=O)NCC(C)(C)O)Oc3ccccc32)ccn1 [Example 12, N-(2-Hydroxy-2-methylpropyl)-4-(2-methoxypyridin-4-ylmethyl)-4H-benzo[1,4]oxazine-2-carboxamide]"
4,0.591 µM,"COc1ccc(CN2C=C(C(=O)N[C@H]3CCCC[C@@H]3O)Oc3ccccc32)cn1 [Example 15, N-(cis-1S,2S-2-Hydroxycyclohexyl)-4-(2-methoxypyridin-5-ylmethyl)-4H-benzo[1,4]oxazine-2-carboxamide]"
5,0.353 µM,"O=C(N[C@H]1CCCC[C@@H]1O)C1=CN(Cc2cccnc2)c2ccccc2O1 [Example 22, N-(cis-1S,2S-2-Hydroxycyclohexyl)-4-(pyridin-3-ylmethyl)-4H-benzo[1,4]oxazine-2-carboxamide]"
6,0.514 µM,"O=C(N[C@H]1CCCC[C@@H]1O)C1=CN(Cc2ccnc(Cl)c2)c2ccccc2O1 [Example 24, N-(cis-1S,2S-2-Hydroxycyclohexyl)-4-(2-chloropyridin-4-ylmethyl)-4H-benzo[1,4]oxazine-2-carboxamide]"
7,0.911 µM,"O=C(N[C@H]1CCCC[C@@H]1O)C1=CN(Cc2ccccn2)c2ccccc2O1 [Example 25, N-(cis-1S,2S-2-Hydroxycyclohexyl)-4-(pyridin-2-ylmethyl)-4H-benzo[1,4]oxazine-2-carboxamide]"
8,1.37 µM,"Cc1ncccc1CN1C=C(C(=O)N[C@H]2CCCC[C@@H]2O)Oc2ccccc21 [Example 27, N-(cis-1S,2S-2-Hydroxycyclohexyl)-4-(2-methylpyridin-3-ylmethyl)-4H-benzo[1,4]oxazine-2-carboxamide]"
9,0.955 µM,"O=C(N[C@H]1CCCC[C@@H]1O)C1=CN(Cc2ccccc2)c2ncccc2O1 [Example 30, N-(cis-1S, 2S-2-Hydroxycyclohexyl)-4-benzyl-4H-pyrido[3,2-b][1,4]oxazine-2-carboxamide]"
10,1.58 µM,"O=C(N[C@H]1CCCC[C@@H]1O)C1=CN(Cc2ccc(F)cc2)c2ncccc2O1 [Example 35, N-(cis-1S,2S-2-Hydroxycyclohexyl)-4-(4-fluorobenzyl)-4H-pyrido[3,2-b][1,4]oxazine-2-carboxamide]"
11,1.54 µM,"O=C(N[C@H]1CCCC[C@@H]1O)C1=CN(Cc2cccc(F)c2)c2cccnc2O1 [Example 36, N-(cis-1S,2S-2-Hydroxycyclohexyl)-1-(3-fluorobenzyl)-1H-pyrido[2,3-b][1,4]oxazine-3-carboxamide]"
12,0.262 µM,"O=C(N[C@H]1CCCC[C@@H]1O)C1=CN(Cc2ccccc2Cl)c2cccc(F)c2O1 [Example 38, N-(cis-1S, 2S-2-Hydroxycyclohexyl)-4-(2-chlorobenzyl)-8-fluoro-4H-benzo[1,4]oxazine-2-carboxamide]"
13,1.55 µM,"O=C(N[C@@H]1CCC[C@H]1O)C1=CN(Cc2cccc(F)c2F)c2ccccc2O1 [Example 39, N-(trans-1R,2R-2-Hydroxycyclopentyl)-4-(2,3-difluorobenzyl)-4H-benzo[1,4]oxazine-2-carboxamide]"
14,1.53 µM,"O=C(N[C@@H]1CCC[C@H]1O)C1=CN(Cc2ccccc2F)c2ccccc2O1 [Example 40, N-(trans-1R,2R-2-Hydroxycyclopentyl)-4-(2-fluorobenzyl)-4H-benzo[1,4]oxazine-2-carboxamide]"
15,0.686 µM,"O=C(N[C@@H]1CCC[C@H]1O)C1=CN(Cc2cccc(F)c2F)c2cccc(F)c2O1 [Example 42, N-(trans-1R,2R-2-Hydroxycyclopentyl)-4-(2,3-difluorobenzyl)-8-fluoro-4H-benzo[1,4]oxazine-2-carboxamide]"
16,1.62 µM,"O=C(Nc1ccccc1CO)C1=CN(Cc2ccccc2F)c2ccccc2O1 [Example 43, N-(2-Hydroxymethylphenyl)-4-(2-fluorobenzyl)-4H-benzo[1,4]oxazine-2-carboxamide]"
